# Structures can show the parent of a compound that is named as a salt.
# B1: IL-4: interleukin 4, a cytokine which acts on MΦ suppressively; typical Th2 cytokine (protein, UniProt P05112 25-153, looked up)
# Interleukin-4: HKCDITLQEIIKTLNSLTEQKTLCTELTVTDIFAASKNTTEKETFCRAATVLRQFYSHHEKDTRCLGATAQQFHRHKQLIRFLKRLDRNLWGLAGLNSCPVKEANQSTLENFLERLKTIMREKYSKCSS
# Legend:
# IL-12 [1] = test: IL-12 production by MΦ induced by intraperitoneal injection of substances (Example 7); format: in vivo, mouse; conditions: MΦ induced by intraperitoneal injection of the substance; stimulation with LPS and IFNγ
# Procedure: (§1) The amount of IL-12 was determined through bioassay using cells of human T cell strain 2D6 (J. Leukocyte Biology, vol. 61, p. 346, 1997).
# (§2) 2D6 cells which had been incubated in an RPMI 1640 medium containing 500 pg/ml of recombinant human IL-12, 50 μM of 2-mercaptoethanol and 10% FCS (fetal calf serum) were moved to a tube, and centrifugally washed three times with the above-mentioned medium without IL-12 and cell density was adjusted to 1×10^5/ml. The cell suspension was added in an amount of 100 μl each to a 96-well flat bottom plate containing a sample serially diluted in advance with an RPMI 1640 medium containing 50 μM of 2-mercaptoethanol and 10% FCS in an amount of 100 μl each. Subsequently, the mixture was charged into a 5% […] incubator of 37° C., and incubated for 48 hours. For final 6 hours, ^3H-TdR was pulsed (a substance adjusted to 370 kBq/ml in an RPMI 1640 medium containing 50 μM of 2-mercaptoethanol and 10% FCS was added in an amount of 50 μl each). The cells a harvested, and the radioactivity was measured using a β counter (Matrix 96, supplied by Packard).
# It was examined whether there is a difference in the IL-12 production between LNT-induced MΦ and LPS-induced MΦ. […] Next, the same analysis was conducted using MΦ induced by intraperitoneally injecting substances for changing the GSH content in cells.
# IL-12 [2] = test: Suppression of IL-12 production of reductive MΦ by DEM or IL-4 (Example 7); format: cell-based, mouse
# Procedure: as §1, §2
# As mentioned above, IL-12 was produced only in reductive MΦ having the high GSH content in cells. It was examined whether this production is suppressed by converting MΦ to oxidative MΦ. That is, it was analyzed whether the IL-12 production is suppressed by exposing lentinan-induced MΦ with DEM.
# (§3) IL-4 is a cytokine which acts on MΦ suppressively. IL-4 is considered to have an opposite function to IL-12 in the Th1/Th2 balance as well. Accordingly, it was examined whether IL-4 acts suppressively on the IL-12 production by reductive MΦ.
# NO [3] = test: NO production from macrophages induced through administration (Example 9, Table 1); format: in vivo, DBA/2 mice; conditions: LPS 100 ng/ml, IFNγ 100 units/ml
# Procedure: (§4) A stimulator was added to 1×10^5 MΦ, and the incubation was conducted at 37° C. for 2 days in a CO2 incubator. After the completion of the centrifugation, the culture supernatant was collected.
# (§5) One hundred microliters of a Griess-Romijn reagent (supplied by Waco Pure Chemical Industries, Ltd.) adjusted to a concentration of 50 mg/ml in distilled water were added to 100 μl of the culture supernatant, and the reaction was conducted at room temperature for 15 minutes. After the completion of reaction, an absorbance of 540 nm was measured. NaNO2 was used as a standard.
# (§6) This was clarified by harvesting peritoneal exudate cells 20 hours after the completion of the administration, adhering the cells to the plastic surface, then reacting the cells with 10 μM of monochlorobimane at 37° C. for 30 minutes, and analyzing the reaction product with ACAS. The increase in the amounts of oxidative macrophages can easily be determined visually from the fact that almost no reaction product with monochlorobimane is observed, namely, a gray or blue image is provided, and the increase in the amounts of reductive macrophages from the fact that a red or yellow image is provided respectively. […] Meanwhile, the same examination was conducted by harvesting peritoneal exudate cells after 20 hours of the administration of 2 mg of N-acetylcystine (NAC).
# (§7) Thus, the peritoneal exudate adherent cells were incubated in the following manner, and the amounts of NO and IL-12 produced in the culture supernatant were measured. With respect to the amount of IL-6, the amount of IL-6 produced spontaneously in the absence of a stimulator was measured.
# (§8) Cells: The peritoneal exudate adherent cells obtained by the stimulation, namely, the macrophages were added to a 96-well microplate in an amount of 1×10^5 cells/200 μl each.
# (§9) Medium: Phenol red-free RPMI 1640: 200 μl/well
# (§10) LPS: Lipopolysaccharide (made by Sigma Co.) (origin: E. coli) 100 ng/ml
# IL-6 [4] = test: IL-6 production from macrophages induced through administration (Example 9, Table 1); format: in vivo, DBA/2 mice; set-up: concentration or dose not given beside the values; conditions: produced spontaneously in the absence of a stimulator
# Procedure: (§11) A stimulator was added to 1×10^6 MΦ, and the incubation was conducted at 37° C. for 2 days in a CO2 incubator. After centrifugation, the culture supernatant was collected.
# (§12) The amount of IL-6 was determined using IL-6 dependent mouse hybridoma MH60 cells (J. Eur. Immunol., vol. 18, p. 951, 1988). One hundred microliters of the culture supernatant were added to 100 μl of the MH60 cell suspension adjusted to 1×10^5 cells/ml in a 10% FCS-containing RPMI medium, and the mixed solution was incubated at 37° C. for 2 days in a CO2 incubator. Subsequently, 10 μl of MTT (supplied by Sigma Co.) solution adjusted to a concentration of 5 mg/ml in the same medium were added thereto, and the reaction was conducted at 37° C. for 5 hours. After the completion of the reaction, the centrifugation was conducted. The supernatant (160 μl) was removed, and 100 μl of a mixture of hydrochloric acid and propanol were added to the residue. The suspension was conducted using a pipetman to dissolve the cells. Immediately after the dissolution, an absorbance of 570 nm was measured with an immunometer (supplied by Bio-Rad).
# as §6, §7, §8, §9
# IL-12 [5] = test: IL-12 production from macrophages induced through administration (Example 9, Table 1); format: in vivo, DBA/2 mice; conditions: LPS 100 ng/ml, IFNγ 100 units/ml
# Procedure: as §1, §2
# The increase in the amounts of oxidative macrophages can easily be determined visually from the fact that almost no reaction product with monochlorobimane is observed, namely, a gray or blue image is provided, and the increase in the amounts of reductive macrophages from the fact that a red or yellow image is provided respectively. […] Meanwhile, the same examination was conducted by harvesting peritoneal exudate cells after 20 hours of the administration of 2 mg of N-acetylcystine (NAC).
# as §7, §8, §9, §10
# [6] = test system: peritoneal exudate cells (macrophages); test: Induction of oxidative or reductive macrophages by administration, monochlorobimane/ACAS (Example 9); format: in vivo, DBA/2 mice; conditions: Day 1 and Day 2, cells harvested 20 hours later; 20 μg (NAC-OMe)2 or (NAC)2, 10 μg acetylgliotoxin, 2 mg NAC intraperitoneally; 40 μg dexamethasone subcutaneously
# Procedure: as §6
# [7] = test system: reductive glutathione in MΦ; test: Content of reductive glutathione in MΦ treated with IL-4, ACAS image analysis (Example 7); format: cell-based, mouse; conditions: image analysis by ACAS
# Procedure: Three-hundred microliters of a cell suspension adjusted concentration of 3×10^5 cells/ml in an RPMI 1640 medium (phenol red-free) were charged into a chambered coverglass (#136439, supplied by Nunc), and incubated at 37° C. for 2 hours using a CO2 incubator. The culture solution was washed with the medium, and 300 μl of monochlorobimane (supplied by Molecular Plobe) adjusted to 10 μM in the same medium were added thereto. The mixture was charged into a CO2 incubator of 37° C., and the reaction was conducted for 30 minutes. The fluorescent intensity was measured with ACAS. In ACAS, a UV laser was used.
# as §3
# NO [8] = test: NO production of MΦ pretreated with IL-4 (Example 7); format: cell-based, mouse
# Procedure: as §4, §5
# Reductive MΦ increases the NO production by the IFNγ stimulation in comparison with oxidative MΦ, and rather suppresses the IL-6 production. IFNγ is known to be a cytokine produced from Th1 cells. […] Further, MΦ of which the GSH content in cells was increased by the stimulation with GSH-OEt and MΦ of which the GSH content in cells was decreased by the stimulation with DEM were pretreated with IL-4, and IFNγ thereafter and LPS stimulation was carried out to induce NO production.
# IL-6 [9] = test: IL-6 production of MΦ pretreated with IL-4 (Example 7); format: cell-based, mouse
# Procedure: as §11, §12
# Further, MΦ of which the GSH content in cells was increased by the stimulation with GSH-OEt and MΦ of which the GSH content in cells was decreased by the stimulation of DEM were pretreated with IL-4, and IFNγ was exposed thereon to induce the IL-6 production. […]
molecule,measurement,setting,value
"CCOC(=O)/C=C\C(=O)OCC [DEM, diethyl maleate, reference compound]",IL-12 production,IL-12 [1],produced only in MΦ derived from GSH-OEt administered mice
same,IL-12 production from lentinan-induced MΦ with the addition of DEM,IL-12 [2]; without DEM 828 pg/ml,0 pg/mL
"C[C@@H]1C[C@H]2[C@@H]3CCC4=CC(=O)C=C[C@]4(C)[C@@]3(F)[C@@H](O)C[C@]2(C)[C@@]1(O)C(=O)CO [Dexamethasone, dexamethasone, reference compound]","NO, amount produced relative to that of control group",NO [3],45%
same,"IL-6, amount produced relative to that of control group",IL-6 [4],1020%
same,"IL-12, amount produced relative to that of control group",IL-12 [5],5%
CC(=O)O[C@H]1C=CC=C2C[C@]34SS[C@](CO)(C(=O)N3[C@@H]21)N(C)C4=O [Acetylgliotoxin],"type of macrophages induced (monochlorobimane, ACAS)",[6],Oxidative macrophages were induced
same,"NO, amount produced relative to that of control group",NO [3],22%
same,"IL-6, amount produced relative to that of control group",IL-6 [4],450%
same,"IL-12, amount produced relative to that of control group",IL-12 [5],14%
B1,IL-12 production by GSH-OEt administered mouse MΦ after pretreatment with IL-4,IL-12 [2]; without IL-4 490 pg/ml,258 pg/mL
same,IL-12 production by LNT-induced MΦ after pretreatment with IL-4,"IL-12 [2]; without IL-4 1,580 pg/ml",370 pg/mL
same,content of reductive glutathione in MΦ,[7],markedly decreases
same,NO production of GSH-OEt-stimulated and DEM-stimulated MΦ pretreated with IL-4,"NO [8]; IFNγ and LPS stimulation, both subsets of MΦ",remarkably suppressed
same,IFNγ NO production from MΦ pretreated with IL-4 in comparison with untreated MΦ,NO [8]; IFNγ stimulation,significantly suppressed
same,IL-6 production of GSH-OEt-stimulated and DEM-stimulated MΦ pretreated with IL-4,"IL-6 [9]; IFNγ exposure, in comparison with IL-4-untreated MΦ",increased
same,IL-6 production with IFNγ after pretreatment with IL-4,"IL-6 [9]; resident MΦ, LPS-induced MΦ and LNT-induced MΦ",markedly increased

# Reference: patent US7378387B2, “Method of suppressing immune response by reducing intracellular content of glutathione in macrophages and monocytes” (Ajinomoto Co., Inc., priority 1997, dated 2008)
